Non-standard residues stand in square brackets, D forms with d. Residues, ends and D or L forms follow the SMILES beside them. *: point of attachment. Phe(F5) = N[C@@H](Cc1c(F)c(F)c(F)c(F)c1F)C(=O)O; hArg = N=C(N)NCCCC[C@H](N)C(=O)O; 12Ado = NCCCCCCCCCCCC(=O)O; Nle = CCCC[C@H](N)C(=O)O; Orn = NCCC[C@H](N)C(=O)O; Abu = CC[C@H](N)C(=O)O; PhAc = O=C(Cc1ccccc1)*
Columns and labels:
[1] = test system: HCC827 xenograft; experiment: Xenograft tumor growth in nude mice, lung cancer HCC827; type: in vivo; details: Panel C, 8 weeks, 5 μg/day s.c.
Procedure: The peptides' activity was compared with GHRH antagonist MIA-602. All statistical analyzses were performed from comparing GHRA antagonists to non-treated tumor (control).
Peptides and chemicals. GHRH antagonists MIA-602 and AVR-GHRH antagonists (see Table 2 above) were synthesized by solid phase methods and purified by HPLC. The peptides were dissolved in DMSO and further diluted in 10% 1, 2-propanediol. The final concentration of peptides was 50 µg/ml in 10% 1, 2-propanediol containing 0.1% of DMSO.
Cell culture. Human cancer cell lines including pancreatic (PANC-1 and CFPAC-1), lung (HCC827 and H460), stomach (NCI-N87), prostate (PC3), brest (MX-1 and HCC-1806), colorectal (HT-29), and ovarian (SK-OV-3 and OVCAR-3) were obtained from the American Type Culture Collection (ATCC) and cultured at 37° C. in a humidified 95% air/5% CO2 atmosphere in the medium recommended by ATCC.
Xenograft models of human cancers in nude mice. Female athymic (NCr nu/nu) nude mice, 5-to 6-weeks-old, obtained from the Envigo labs (Tampa, FL), were housed in laminar airflow cabinets under pathogen-free conditions with a 12-h light/12-h dark schedule, and were fed autoclaved standard chow and water. To generate mice with xenografted tumors, tumor xenografts were initiated by subcutaneous (s.c.) injection of […] human cancer cells into female nude mice. After about 4 weeks the resulting tumors were dissected and collected after removing necrosis tissues. The tumors were then cut into particles with size of ˜3 mm3 and transplanted s.c. by trocar needle into experimental animals. When tumors grew to the size of 50-60 mm3 (by volume), mice were randomized into groups and treated daily for 4-8 weeks by subcutaneous administration of 5 μg of GHRH antagonists MIA-602 or AVR-compounds (2-10 μg as indicated), or vehicle solutions (0.1% DMSO in 10% 1, 2-propanediol) respectively. Tumor sizes were measured weekly.
Statistical analysis. One-way ANOVA followed by Bonferroni comparison were performed. Data are expressed as Mean±SEM. To determine statistical significance between animal groups, two-tailed Student's t-test was conducted. Differences were considered significant when p<0.05.
Results. […] FIG. 1A-N represents in vivo inhibition of tumor growth during the treatment with GHRH antagonist MIA-602 and selected AVR antagonists in nude mice xenografted with various human tumors including pancreatic cancer PANC-1 (FIG. 1A) and CFPAC-1 (FIG. 1I); lung cancer HCC827 (FIGS. 1B, C) and H460 (FIG. 1H); stomach cancer N87 (FIGS. 1D-F); colon cancer HT-29 (FIG. 1G); breast cancer MX-1 and HCC-1806 (FIGS. 1J, K); ovarian cancer SK-OV-3 and OVACAR-3 (FIGS. 1L, M) and prostate cancer PC3 (FIG. 1N). See also Table 5.

[2] = test system: C57Bl/6J mice treated with bleomycin; experiment: Bleomycin lung injury model, lung hydroxyproline assay; type: in vivo, mouse
Procedure: Experimental animals. 8-week old C57Bl/6J male mice (The Jackson Laboratory, Bar Harbor, ME) were used in these experiments. Mice weighed about 26 grams at the start. Mice were randomly allocated to the experimental groups and housed in identical filter top cages in a ventilated rack. Mice were exposed to a 12-hour light/dark cycle and had free access to standard laboratory chow and water.
Bleomycin and GHRH-R antagonist treatment. Mice were treated with 0.8 units of bleomycin (Bleomycin for Injection USP, Hospira, Lake Forest, IL) intraperitoneally (IP) on days 1, 3, 7, 10, 14 and 21 (Collins S, Chan-Li Y, Oh M, Vigeland C, Limjunyawong N, Mitzner W, Powell J D, Horton M R (2016). JCI Insight 1(4):1-13). Mice (randomly assigned) were simultaneously treated subcutaneously (sc) with MIA-602 (5 μg/day) or its vehicle (100 μL/day). MIA-602 was dissolved in DMSO (ACS grade; Sigma-Aldrich) and diluted 1:500 in normal saline for daily sc injection on days 0-21.
Tissue preparations. Mice were killed by CO2 inhalation before any treatment, or on days 14 or 28 for micro-CT scans of lungs and harvesting of lung tissue (Vande Velde G, Poelmans J, De Langhe E, Hillen A, Vanoirbeek J, Himmelreich U, Lories R (2016). Dis Model Mech 9:91). […]
Hydroxyproline assay. […] Hydroxyproline was measured colorimetrically (560 nm) after hydrolysis using an assay kit (MAK008, Sigma-Aldrich, St. Louis, MO). […]

Compound: CCCC[C@H](NC(=O)[C@@H](NC(=O)[C@H](CC(=O)O)NC(=O)[C@H](CCC(N)=O)NC(=O)[C@H](CC(C)C)NC(=O)[C@H](CC(C)C)NC(=O)[C@H](CCCN)NC(=O)[C@H](Cc1c[nH]cn1)NC(=O)[C@H](C)NC(=O)[C@H](CO)NC(=O)[C@H](CC(C)C)NC(=O)[C@H](CCC(N)=O)NC(=O)[C@H](CC)NC(=O)[C@H](CC(C)C)NC(=O)[C@@H](NC(=O)[C@H](CCCN)NC(=O)[C@H](Cc1c[nH]cn1)NC(=O)[C@H](Cc1ccc(OC)cc1)NC(=O)[C@H](CCCCNC(=N)N)NC(=O)[C@H](C)NC(=O)[C@@H](NC(=O)[C@H](Cc1c(F)c(F)c(F)c(F)c1F)NC(=O)[C@@H](NC(=O)[C@H](C)NC(=O)[C@H](CC(=O)O)NC(=O)[C@@H](CCCNC(=N)N)NC(=O)[C@H](Cc1ccc(O)cc1)NC(=O)CCCCCCCCCCCNC(=O)Cc1ccccc1)[C@@H](C)CC)[C@@H](C)O)C(C)C)[C@@H](C)CC)C(=O)N[C@H](CCCNC(=N)N)C(=O)N[C@@H](CCCCNC(=N)N)C(N)=O [MIA-602, PhAC-Ada, Tyr D-Arg, Asp, Ala, Ile, 5FPhe, Thr, Ala, Har, Tyr(Me), His, Orn, Val, Leu, Abu, Gin, Leu, Ser, Ala, His, Orn, Leu, Leu, Gin, Asp, Ile, Nle, D-Arg, Har NH2, reference compound] ({PhAc-12Ado}-Y[dR]DAI[Phe(F5)]TA[hArg]Y(Me)H[Orn]VL[Abu]QLSAH[Orn]LLQDI[Nle][dR][hArg]-NH2)
- Tumor Growth % [1]: 523.03%
- % Inhibition ([1]; vs control): 37.8%
- Lung hydroxyproline (HP) content ([2]; day 14, MIA-602 5 μg/day sc, bleomycin IP): did not increase significantly
- Lung hydroxyproline (HP) content ([2]; day 28, MIA-602 5 μg/day sc days 1-21, bleomycin IP, compared to naive): No significant increase in HP content

— US11993640B2, “Treating inflammatory lung disease” (United States Government as represented by the Department …, priority 2019, dated 2024)
